PubChem BioAssay AID1259407 (Chemical Carcinogenesis Research Information System (CCRIS), 2018)
Active and inactive are the calls of the source. How the calls were made is not given here.

System: CCRIS mutagenicity, Ames/micronucleus/aberration tests
Experiment: CCRIS mutagenicity studies
[1] = Test System: AMES SALMONELLA TYPHIMURIUM, Strain/Indicator: TA100, Metabolic Activation: NONE, Method: STANDARD PLATE

`CCCCOS(=O)(=O)c1ccccc1` was tested, and the mutagenic call (End Point: IN VITRO MICRONUCLEUS, Test System: MOUSE LYMPHOMA L5178Y CELLS, Metabolic Activation: NONE) was “inactive; negative”, the mutagenic call (End Point: IN VITRO MICRONUCLEUS, Test System: MOUSE LYMPHOMA L5178Y CELLS, Metabolic Activation: RAT, LIVER, S-9) was “inactive; negative” and the mutagenic call (End Point: In vitro micronucleus, Test System: Chinese Hamster Ovary (CHO-WBL) cells, Metabolic Activation: None) was “active; positive (p<0.01)”. For the same molecule, the mutagenic call [1] was “active; positive” and the mutagenic call (Test System: AMES SALMONELLA TYPHIMURIUM, Strain/Indicator: TA100, Metabolic Activation: RAT, LIVER, S-9, Method: STANDARD PLATE) was “active; positive”.
`C[C@]12CCC=C(C=O)[C@@]1(C=O)C2` was tested, and the mutagenic call (Test System: AMES SALMONELLA TYPHIMURIUM, Strain/Indicator: TA98, Metabolic Activation: NONE, Method: STANDARD PLATE) was “active; positive” and the mutagenic call [1] was “active; positive”.
In the case of `CNc1ccc2nc(C)cnc2c1C`, the mutagenic call (Test System: AMES SALMONELLA TYPHIMURIUM, Strain/Indicator: TA98, Metabolic Activation: NONE, Method: PREINCUBATION) is reported as “inactive; negative”, the mutagenic call (Test System: AMES SALMONELLA TYPHIMURIUM, Strain/Indicator: TA98, Metabolic Activation: RAT, LIVER, S-9, PCB, Method: PREINCUBATION) is reported as “active; positive” and the mutagenic call (Test System: AMES SALMONELLA TYPHIMURIUM, Strain/Indicator: TA100, Metabolic Activation: NONE, Method: PREINCUBATION) is reported as “inactive; negative”. The mutagenic call (Test System: AMES SALMONELLA TYPHIMURIUM, Strain/Indicator: TA100, Metabolic Activation: RAT, LIVER, S-9, PCB, Method: PREINCUBATION) was “active; positive”.
